# From ChEMBL document CHEMBL4699507, “Rhopaladins' analogue (E)-2-aroyl-4-(4-fluorobenzylidene)-5-oxopyrrolidines inhibit proliferation, promote apoptosis and down-regulation of E6/E7 mRNA in cervical cancer” (2020)
# Assays:
# [1] = tested on: Ca-Ski; experiment: Antiproliferative activity against human CaSki cells assessed as inhibition of cell viability incubated for 48 hrs by MTT assay; format: functional, cell-based; conditions: dose microM 3.125-100, time 48.0 hrs
# [2] = tested on: Ca-Ski; experiment: Induction of apoptosis in human CaSki cells assessed as necrotic cells at 50 uM after 48 hrs by Annexin V-FITC/PI double staining based flow cytometric analysis (Rvb =0.075%); format: functional
# [3] = Inhibition of Human papillomavirus type 16 derived E6 gene expression in human CaSki cells assessed as fold change in expression at 50 uM measured after 48 hrs by RT-qPCR analysis relative to control; format: functional, Ca-Ski
# [4] = tested on: Ca-Ski; experiment: Induction of apoptosis in human CaSki cells assessed as viable cells at 12.5 uM after 48 hrs by Annexin V-FITC/PI double staining based flow cytometric analysis (reference value: 93%); format: functional; conditions: read-out: Activity
# [5] = tested on: Ca-Ski; experiment: Induction of apoptosis in human CaSki cells assessed as early apoptotic cells at 25 uM after 48 hrs by Annexin V-FITC/PI double staining based flow cytometric analysis (Rvb =0.697%); format: functional
# [6] = Inhibition of Human papillomavirus type 16 derived E6 gene expression in human CaSki cells assessed as fold change in expression at 12.5 uM measured after 48 hrs by RT-qPCR analysis relative to control; format: functional, Ca-Ski
# [7] = tested on: Ca-Ski; experiment: Induction of apoptosis in human CaSki cells assessed as early apoptotic cells at 50 uM after 48 hrs by Annexin V-FITC/PI double staining based flow cytometric analysis (Rvb =0.697%); format: functional
# [8] = tested on: Ca-Ski; experiment: Induction of apoptosis in human CaSki cells assessed as necrotic cells at 25 uM after 48 hrs by Annexin V-FITC/PI double staining based flow cytometric analysis (Rvb =0.075%); format: functional
# [9] = tested on: Ca-Ski; experiment: Induction of apoptosis in human CaSki cells assessed as viable cells at 50 uM after 48 hrs by Annexin V-FITC/PI double staining based flow cytometric analysis (reference value: 93%); format: functional; conditions: read-out: Activity
# [10] = Inhibition of Human papillomavirus type 16 derived E7 gene expression in human CaSki cells assessed as fold change in expression at 12.5 uM measured after 48 hrs by RT-qPCR analysis relative to control; format: functional, Ca-Ski
# [11] = Inhibition of Human papillomavirus type 16 derived E7 gene expression in human CaSki cells assessed as fold change in expression at 25 uM measured after 48 hrs by RT-qPCR analysis relative to control; format: functional, Ca-Ski
# [12] = tested on: Ca-Ski; experiment: Induction of apoptosis in human CaSki cells assessed as late apoptotic cells at 25 uM after 48 hrs by Annexin V-FITC/PI double staining based flow cytometric analysis (Rvb =5.59%); format: functional
# [13] = Inhibition of Human papillomavirus type 16 derived E7 gene expression in human CaSki cells assessed as fold change in expression at 50 uM measured after 48 hrs by RT-qPCR analysis relative to control; format: functional, Ca-Ski
# [14] = tested on: Ca-Ski; experiment: Induction of apoptosis in human CaSki cells assessed as late apoptotic cells at 12.5 uM after 48 hrs by Annexin V-FITC/PI double staining based flow cytometric analysis (Rvb =5.59%); format: functional
# [15] = tested on: Ca-Ski; experiment: Induction of apoptosis in human CaSki cells at 25 uM after 48 hrs by Annexin V-FITC/PI double staining based flow cytometric analysis (reference value: 6.25 +/-0.5%); format: functional
# [16] = tested on: Ca-Ski; experiment: Induction of apoptosis in human CaSki cells after 48 hrs by Annexin V-FITC/PI double staining based flow cytometric analysis; format: functional, cell-based; conditions: dose microM 12.5-50, time 48.0 hrs
# [17] = tested on: Ca-Ski; experiment: Induction of apoptosis in human CaSki cells at 12.5 uM after 48 hrs by Annexin V-FITC/PI double staining based flow cytometric analysis (reference value: 6.25 +/-0.5%); format: functional
# [18] = Inhibition of Human papillomavirus type 16 derived E6 gene expression in human CaSki cells assessed as fold change in expression at 25 uM measured after 48 hrs by RT-qPCR analysis relative to control; format: functional, Ca-Ski
# [19] = tested on: Ca-Ski; experiment: Antiproliferative activity against human CaSki cells assessed as reduction in cell viability at 3.125-100 uM by MTT assay; format: functional, cell-based; conditions: dose microM 3.125-100, time hrs 24-72, TDE = time-dependent effect
# [20] = tested on: Ca-Ski; experiment: Induction of apoptosis in human CaSki cells at 50 uM after 48 hrs by Annexin V-FITC/PI double staining based flow cytometric analysis (reference value: 6.25 +/-0.5%); format: functional
# [21] = tested on: Ca-Ski; experiment: Induction of apoptosis in human CaSki cells assessed as viable cells at 25 uM after 48 hrs by Annexin V-FITC/PI double staining based flow cytometric analysis (reference value: 93%); format: functional; conditions: read-out: Activity
# [22] = tested on: Ca-Ski; experiment: Induction of apoptosis in human CaSki cells assessed as necrotic cells at 12.5 uM after 48 hrs by Annexin V-FITC/PI double staining based flow cytometric analysis (Rvb =0.075%); format: functional
# [23] = tested on: Ca-Ski; experiment: Induction of apoptosis in human CaSki cells assessed as early apoptotic cells at 12.5 uM after 48 hrs by Annexin V-FITC/PI double staining based flow cytometric analysis (Rvb =0.697%); format: functional
# [24] = tested on: Ca-Ski; experiment: Induction of apoptosis in human CaSki cells assessed as late apoptotic cells at 50 uM after 48 hrs by Annexin V-FITC/PI double staining based flow cytometric analysis (Rvb =5.59%); format: functional
smiles,measurement,setting,value
CC(C)N1C(=O)/C(=C/c2ccc(F)cc2)CC1(C(=O)NC(C)(C)C)C(=O)c1ccc(Br)cc1 (stereo unspecified),Activity,[1],Dose-dependent effect
CCCCN1C(=O)/C(=C/c2ccc(F)cc2)CC1(C(=O)NC(C)(C)C)C(=O)c1ccc(Cl)cc1 (stereo unspecified),Activity,[1],Dose-dependent effect
CC(C)N1C(=O)/C(=C/c2ccc(F)cc2)CC1(C(=O)NC(C)(C)C)C(=O)c1ccc(Cl)cc1 (stereo unspecified),Activity,[2],0.217%
same,Activity,[1],Dose-dependent effect
same,fold change (FC),[3],0.354
same,viability at 12.5 µM,[4],85.4%
same,Activity,[5],14.9%
same,fold change (FC),[6],0.653
same,Activity,[7],26.2%
same,Activity,[8],0.105%
same,viability at 50 µM,[9],58.5%
same,fold change (FC),[10],0.483
same,fold change (FC),[11],0.465
same,Activity,[12],9.65%
same,fold change (FC),[13],0.432
same,Activity,[14],6.24%
same,Activity,[15],23.56%
same,Activity,[16],Dose-dependent effect
same,Activity,[17],15.6%
same,fold change (FC),[18],0.547
same,Activity,[19],Tde
same,Activity,[20],41.2%
same,viability at 25 µM,[21],75.3%
same,Activity,[22],0.18%
same,Activity,[23],8.2%
same,Activity,[24],15%
